Test results as given in article PMC8096218, “Global RNA profiles show target selectivity and physiological effects of peptide-delivered antisense antibiotics” (Nucleic Acids Research, 2021).
Like-named read-outs stand apart in the source and are kept apart here. Where a SMILES comes first, the peptide text is derived from it. [ ]: non-standard residue; d: D form. Ahx = NCCCCCC(=O)O

Experiments:
[1] = test system: wild-type (wt) Salmonella enterica serovar Typhimurium strain SL1344
Description: (§1) MIC values were determined by broth microdilution according to standard protocols with a few modifications ([26]). An overnight bacterial cell culture, supplemented with the appropriate antibiotic when needed, was diluted 1:100 in fresh MHB and grown to OD600 0.5. The obtained culture was diluted to ∼10^5 cfu/ml or 10^6 cfu/ml, as indicated, in non-cation-adjusted MHB. Subsequently, 190 μl bacterial solution was dispensed into a 96-well plate (Thermo Fisher Scientific) along with 10 μl of a 20x PPNA, PNA or peptide working solution. Growth was monitored by measuring the OD at 600 nm every 20 min in a Synergy H1 plate reader (Biotek) with continuous double-orbital shaking (237 cpm) at 37°C for 24 h.

SL1344 ΔphoP = test: MIC determination by broth microdilution; format: cell-based, Salmonella enterica serovar Typhimurium; conditions: Table 3; ∼10^5 cfu/ml; three biological replicates
Description: as §1
Fig. S4. Growth kinetics for MIC determ ination of 10^5 cfu/m l Salmonella wt (SL1344) and its isogenic ∆phoP m utant in the pres ence of var ying concentrations of the indicated conjugates. ( A) KFF-acpP, KFF-acpP-scram bled (scr) or KFF peptide in serial dilutions from 10 µM to 0.3 µM. ( B) RXR- acpP, RXR-acpP-scram bled (scr) or RXR peptide in seria l d ilutions f rom 10 µM to 0. 3 µM. ( C) T at-acpP, T at-acpP-scrambled (scr) or T at peptide in serial dilutions from 20 µM to 0.6 µM. D ata represent the average of three biological replicates, error bars indicate standard er ror of the m ean […]
(§2) (1 picture or pasted object on this page, not shown here)

[2] = test system: wild-type Salmonella enterica serovar Typhimurium strain LT2; test: MIC determination by broth microdilution; format: cell-based; conditions: Table 3; ∼10^5 cfu/ml; three biological replicates
Description: as §1
(§3) Fig. S5. Growth k inetics for MIC determ ination of 10^5 cfu/m l Salmonella wt (LT 2) and its isogenic
(§4) Pho PC m utant in the presen ce of var ying co ncentra tio n s of the in dicat ed co njugat e s. ( A) KFF-acpP,
(§5) KFF-acpP-scram bled (scr) or KFF peptide in s erial dilutions from 10 µM to 0.3 µM. ( B) RXR- acpP,
(§6) RXR- acpP-scram bled (scr) or RXR peptide in serial dilutions from 10 µM to 0.3 µ M. ( C) T at-acpP,
(§7) T at-acpP-scram bled (scr) or T at peptide in serial dilutions from 20 µM to 0.6 µM. Data represent
(§8) the average of three biological replicates, error bars indicate standard error of the m ean (SEM).
as §2

LT2 PhoP^C = test: MIC determination by broth microdilution; format: cell-based, Salmonella enterica serovar Typhimurium; conditions: Table 3; ∼10^5 cfu/ml; three biological replicates
Description: as §1, §3, §4, §5, §6, §7, §8, §2

[3] = test system: Salmonella gene expression; test: RNA-seq transcriptomic response; format: cell-based, Salmonella enterica serovar Typhimurium; conditions: 15 min; for logFC SL1344_0066A / logFC SL1344_2742 / logFC mgtA: 5 μM RXR-constructs; for number of differentially expressed genes: absolute fold change >2 and FDR-adjusted P-value <0.001 versus water
Description: Bacterial overnight cultures were diluted 1:100 in fresh MHB and grown to OD600 0.5. The obtained cultures were diluted to ∼10^6 cfu/ml in non-cation-adjusted MHB. Afterward, the bacterial solution was transferred into low-binding 5 ml tubes (LABsolute) along with the 20× PNA, peptide or PPNA solution. The final concentrations were 5 μM for KFF- and RXR-PNAs, and 10 μM for Tat-PNAs. Equimolar concentrations were used for the respective peptide control conditions. As a negative control, cells were treated with the respective volume of sterile nuclease-free water, which was used as solvent for the test compounds.
A time kinetic was performed for subsequent northern blot analysis (5, 10, 15 min), in which the reaction was stopped at the indicated time points by using RNAprotect Bacteria (Qiagen). For RNA-seq analyses, adding RNAprotect Bacteria at 15 min post treatment stopped the reactions with the indicated PPNA constructs or the respective peptide. After vortexing for 5 s, the samples were incubated at room temperature for 10 min, followed by cell pelleting at 4°C and 21 100 ×g for 20 min. Pellets were directly used for RNA isolation or stored at –20°C (<2 days) until further processing. RNA was purified from bacterial pellets using isolation protocol #3, as described above (0.5 mg/ml lysozyme, miRNeasy).
DNase treatment, cDNA library preparation and sequencing was conducted at Vertis (Munich, Germany). The RNA samples were first fragmented using ultrasound (4 pulses of 30 s each at 4°C). Then, an oligonucleotide adapter was ligated to the 3′ ends of the RNA molecules. First-strand cDNA synthesis was performed using M-MLV reverse transcriptase and the 3′ adapter as primer. The first-strand cDNA was purified and the 5′ Illumina TruSeq sequencing adapter was ligated to the 3′ end of the antisense cDNA. The resulting cDNA was PCR-amplified to about 10–20 ng/μl using a high fidelity DNA polymerase. The cDNA was purified using the Agencourt AMPure XP kit (Beckman Coulter Genomics) and was analyzed by capillary electrophoresis. For Illumina NextSeq sequencing, the samples were pooled in approximately equimolar amounts. The cDNA pool was sequenced on an Illumina NextSeq 500 system using 75 bp read length.
Reads from the RNA-Seq experiments were trimmed, filtered and mapped against the S. enterica subsp. enterica serovar Typhimurium SL1344 reference genome and the three plasmids pSLT_SL1344, pCol1B9_SL1344 (other name is p2), and pRSF1010_SL1344 ([19]). BBDuk was applied to trim bases with a Phred quality score of <10, and adapters were removed simultaneously. Reads were then mapped against the reference genome using BBMap (v38.84) and then assigned genomic features, including both coding sequences and annotated sRNAs ([19],[29]) using the featureCounts method of the Subread (2.0.1) package.
All downstream analysis was performed using packages from the R/Bioconductor project. The raw read counts were imported and analyzed with edgeR (v3.30.0). Each set of PNA-peptide conjugate experiments (i.e. experiments with KFF, RXR and Tat peptide) was analyzed simultaneously. Genes with less than 14.6 counts per million (CPM) in at least three libraries were filtered. This cutoff value was calculated using 10/L, where L is the library size of the smallest sample (minimum library size) in millions.
Raw read counts were normalized by trimmed mean of M values (TMM) normalization. Differential expression analysis was conducted using edgeR ([31]). Estimation of quasi-likelihood (QL) dispersions was then run with the […] function. Then contrasts between all samples versus the water controls were created as input for the glmQLTest function.
Genes with an absolute fold change >2 and an adjusted P-value (Benjamini–Hochberg, ([32])) <0.001 were considered differentially expressed.

[4] = Table 1, ∼10^5 cfu/ml, non-cation-adjusted MHB, 37°C, 24 h, lowest concentration with OD600 < 0.1
[5] = Table 2, ∼10^6 cfu/ml, non-cation-adjusted MHB, 37°C, 24 h, performed three times
[6] = RNA-seq, 5 μM, listed as RXR-acpP-scrambled
[7] = edgeR, versus water, 5 μM KFF-/RXR-constructs, 10 μM Tat-constructs, triplicates
[8] = edgeR, versus water, 10 μM Tat-constructs, triplicates, listed as PNARXRscr
[9] = edgeR, versus water, 5 μM, triplicates
[10] = Table 3, ∼10^5 cfu/ml, three biological replicates
[11] = 5 μM KFF-/RXR-constructs, 10 μM Tat-constructs
[12] = edgeR, versus water, 5 μM KFF-/RXR-constructs, 10 μM Tat-constructs, triplicates, listed as PNAKFFscr
[13] = wild-type (wt) serovar Typhimurium strain SL1344, 24 h
[14] = edgeR, versus water, 10 μM Tat-constructs, triplicates
[15] = edgeR, versus water, 10 μM, triplicates
[16] = edgeR, versus water, 10 μM Tat-constructs, triplicates, listed as PNATATscr

RXRRXRRXRRXRXB [RXR-acpP-scr, RXR peptide conjugated to scrambled control PNA]
MIC [1, 4]: >10 µM | MIC [1, 5]: >10 µM | MIC in μM, SL1344 ΔphoP (SL1344 ΔphoP): 5 µM | MIC in μM, LT2 wt [2]: 10 µM | MIC in μM, LT2 PhoP^C (LT2 PhoP^C): >10 µM | number of downregulated sRNAs, apart from the induction of AmgR [3, 6]: three | upregulation of mig-14 [3, 6]: 1.92 fold | logFC yfiA [3, 7]: 1.5255 | logFC SL1344_0066A [3, 8]: 4.581 | logFC SL1344_2742 [3, 8]: 3.203 | logFC mgtA [3, 8]: 1.779 | logFC yihO [3, 9]: 3.308

KFFKFFKFFK [KFF-acpP-scr]
MIC [1, 4]: >10 µM | MIC [1, 5]: >10 µM | MIC in μM, SL1344 wt [1, 10]: >10 µM | MIC in μM, SL1344 ΔphoP (SL1344 ΔphoP): ≥10 µM | MIC in μM, LT2 wt [2]: >10 µM | MIC in μM, LT2 PhoP^C (LT2 PhoP^C): >10 µM | number of differentially expressed genes [3, 11]: 10 | upregulation of AmgR transcript levels ([3]; RNA-seq, 5 μM, listed as KFF-acpP-scrambled): ~2 fold | logFC mig-14 [3, 12]: 1.6196 | logFC virK [3, 12]: 2.3333 | logFC SL1344_1602 [3, 9]: 1.058 | logFC cdh-a [3, 9]: 0.9654 | logFC yfbE [3, 9]: 0.9577

CC(=O)N[C@@H](CCCCN)C(=O)N[C@@H](Cc1ccccc1)C(=O)N[C@@H](Cc1ccccc1)C(=O)N[C@@H](CCCCN)C(=O)N[C@@H](Cc1ccccc1)C(=O)N[C@@H](Cc1ccccc1)C(=O)N[C@@H](CCCCN)C(=O)N[C@@H](Cc1ccccc1)C(=O)N[C@@H](Cc1ccccc1)C(=O)N[C@@H](CCCCN)C(=O)O [KFF, reference compound] (Ac-KFFKFFKFFK-OH; C-terminus assumed)
MIC [1, 13]: >10 µM | MIC in μM, SL1344 wt [1, 13]: >10 µM | number of differentially expressed genes [3, 11]: 32 | upregulation of AmgR transcript levels ([3]; RNA-seq, 5 μM): ~4 fold | logFC AmgR [3, 7]: 1.914 | logFC mig-14 [3, 7]: 2.101 | logFC virK [3, 7]: 2.978 | logFC yfbE [3, 9]: 1.473 | logFC yjeH [3, 9]: 1.189

CC(=O)NCC(=O)N[C@@H](CCCNC(=N)N)C(=O)N[C@@H](CCCCN)C(=O)N[C@@H](CCCCN)C(=O)N[C@@H](CCCCN)C(=O)N[C@@H](CCCNC(=N)N)C(=O)N[C@@H](CCCNC(=N)N)C(=O)N[C@@H](CCC(N)=O)C(=O)N[C@@H](CCCNC(=N)N)C(=O)N[C@@H](CCCNC(=N)N)C(=O)N[C@@H](CCCNC(=N)N)C(=O)N[C@@H](Cc1ccc(O)cc1)C(=O)N[C@@H](CCCCN)C(=O)O [Tat, reference compound] (Ac-GRKKKRRQRRRYK-OH)
MIC in μM, SL1344 wt [1, 13]: >20 µM | number of differentially expressed genes [3, 11]: 97 | maximum fold change, mgtB ([3]; RNA-seq, 10 μM): 35 fold | logFC AmgR [3, 7]: 3.7167 | logFC virK [3, 7]: 4.014 | logFC mgtA [3, 14]: 2.72 | logFC cigR [3, 15]: 3.46 | logFC phoN [3, 15]: 2.478

CC(=O)N[C@@H](CCCNC(=N)N)C(=O)NCCCCCC(=O)N[C@@H](CCCNC(=N)N)C(=O)N[C@@H](CCCNC(=N)N)C(=O)NCCCCCC(=O)N[C@@H](CCCNC(=N)N)C(=O)N[C@@H](CCCNC(=N)N)C(=O)NCCCCCC(=O)N[C@@H](CCCNC(=N)N)C(=O)N[C@@H](CCCNC(=N)N)C(=O)NCCCCCC(=O)N[C@@H](CCCNC(=N)N)C(=O)NCCCCCC(=O)O [RXR, reference compound] (Ac-R[Ahx]RR[Ahx]RR[Ahx]RR[Ahx]R[Ahx]-OH; C-terminus assumed)
MIC [1, 13]: >10 µM | MIC in μM, SL1344 wt [1, 13]: >10 µM | number of differentially expressed genes [3, 11]: 26 | fold change in gene expression of phoQ ([3]; RNA-seq, 5 μM, below cutoff of >2): 1.87 fold | logFC AmgR [3, 7]: 1.916 | logFC mig-14 [3, 7]: 1.873 | logFC virK [3, 7]: 2.819 | logFC mgtA [3, 14]: 1.432 | logFC yfbE [3, 9]: 1.219

GRKKKRRQRRRYK [Tat-acpP-scr, Tat peptide conjugated to scrambled control PNA]
MIC [1, 4]: >20 µM | MIC [1, 5]: >40 µM | MIC in μM, SL1344 wt [1, 10]: >20 µM | MIC in μM, SL1344 ΔphoP (SL1344 ΔphoP): 20 µM | MIC in μM, LT2 wt [2]: >20 µM | MIC in μM, LT2 PhoP^C (LT2 PhoP^C): >20 µM | number of differentially expressed sRNAs, apart from AmgR upregulation ([3]; RNA-seq, 10 μM, listed as Tat-acpP-scrambled): 13 | logFC SL1344_0066A [3, 16]: 4.787 | logFC SL1344_2742 [3, 16]: 4.052 | logFC SL1344_1472 [3, 15]: 3.687 | logFC ccmE2 [3, 15]: 4.962 | logFC recJ ([3]; edgeR, versus water, 10 μM, triplicates, listed as PNATATscr): 2.253
